Measured values published in publication PMC7959846, “Block of Voltage-Gated Sodium Channels by Atomoxetine in a State- and Use-dependent Manner” (Frontiers in Pharmacology, 2021).
“And” between values parts separate entries of the source, which are not always exact repeats. Equal values may be shown once.

What was measured:
[1] = biological target: T1, hNav1.5 (Homo sapiens, UniProt Q14524); test: Use-dependent interaction (high frequency stimulation trains); conditions: for relative current amplitude of the 50th pulse related to the first pulse: 1 ms test pulse; for remaining current amplitude (use-dependence, pulse duration series): 10 Hz (Figure 9B)
T1 sequence (Q14524 whole entry): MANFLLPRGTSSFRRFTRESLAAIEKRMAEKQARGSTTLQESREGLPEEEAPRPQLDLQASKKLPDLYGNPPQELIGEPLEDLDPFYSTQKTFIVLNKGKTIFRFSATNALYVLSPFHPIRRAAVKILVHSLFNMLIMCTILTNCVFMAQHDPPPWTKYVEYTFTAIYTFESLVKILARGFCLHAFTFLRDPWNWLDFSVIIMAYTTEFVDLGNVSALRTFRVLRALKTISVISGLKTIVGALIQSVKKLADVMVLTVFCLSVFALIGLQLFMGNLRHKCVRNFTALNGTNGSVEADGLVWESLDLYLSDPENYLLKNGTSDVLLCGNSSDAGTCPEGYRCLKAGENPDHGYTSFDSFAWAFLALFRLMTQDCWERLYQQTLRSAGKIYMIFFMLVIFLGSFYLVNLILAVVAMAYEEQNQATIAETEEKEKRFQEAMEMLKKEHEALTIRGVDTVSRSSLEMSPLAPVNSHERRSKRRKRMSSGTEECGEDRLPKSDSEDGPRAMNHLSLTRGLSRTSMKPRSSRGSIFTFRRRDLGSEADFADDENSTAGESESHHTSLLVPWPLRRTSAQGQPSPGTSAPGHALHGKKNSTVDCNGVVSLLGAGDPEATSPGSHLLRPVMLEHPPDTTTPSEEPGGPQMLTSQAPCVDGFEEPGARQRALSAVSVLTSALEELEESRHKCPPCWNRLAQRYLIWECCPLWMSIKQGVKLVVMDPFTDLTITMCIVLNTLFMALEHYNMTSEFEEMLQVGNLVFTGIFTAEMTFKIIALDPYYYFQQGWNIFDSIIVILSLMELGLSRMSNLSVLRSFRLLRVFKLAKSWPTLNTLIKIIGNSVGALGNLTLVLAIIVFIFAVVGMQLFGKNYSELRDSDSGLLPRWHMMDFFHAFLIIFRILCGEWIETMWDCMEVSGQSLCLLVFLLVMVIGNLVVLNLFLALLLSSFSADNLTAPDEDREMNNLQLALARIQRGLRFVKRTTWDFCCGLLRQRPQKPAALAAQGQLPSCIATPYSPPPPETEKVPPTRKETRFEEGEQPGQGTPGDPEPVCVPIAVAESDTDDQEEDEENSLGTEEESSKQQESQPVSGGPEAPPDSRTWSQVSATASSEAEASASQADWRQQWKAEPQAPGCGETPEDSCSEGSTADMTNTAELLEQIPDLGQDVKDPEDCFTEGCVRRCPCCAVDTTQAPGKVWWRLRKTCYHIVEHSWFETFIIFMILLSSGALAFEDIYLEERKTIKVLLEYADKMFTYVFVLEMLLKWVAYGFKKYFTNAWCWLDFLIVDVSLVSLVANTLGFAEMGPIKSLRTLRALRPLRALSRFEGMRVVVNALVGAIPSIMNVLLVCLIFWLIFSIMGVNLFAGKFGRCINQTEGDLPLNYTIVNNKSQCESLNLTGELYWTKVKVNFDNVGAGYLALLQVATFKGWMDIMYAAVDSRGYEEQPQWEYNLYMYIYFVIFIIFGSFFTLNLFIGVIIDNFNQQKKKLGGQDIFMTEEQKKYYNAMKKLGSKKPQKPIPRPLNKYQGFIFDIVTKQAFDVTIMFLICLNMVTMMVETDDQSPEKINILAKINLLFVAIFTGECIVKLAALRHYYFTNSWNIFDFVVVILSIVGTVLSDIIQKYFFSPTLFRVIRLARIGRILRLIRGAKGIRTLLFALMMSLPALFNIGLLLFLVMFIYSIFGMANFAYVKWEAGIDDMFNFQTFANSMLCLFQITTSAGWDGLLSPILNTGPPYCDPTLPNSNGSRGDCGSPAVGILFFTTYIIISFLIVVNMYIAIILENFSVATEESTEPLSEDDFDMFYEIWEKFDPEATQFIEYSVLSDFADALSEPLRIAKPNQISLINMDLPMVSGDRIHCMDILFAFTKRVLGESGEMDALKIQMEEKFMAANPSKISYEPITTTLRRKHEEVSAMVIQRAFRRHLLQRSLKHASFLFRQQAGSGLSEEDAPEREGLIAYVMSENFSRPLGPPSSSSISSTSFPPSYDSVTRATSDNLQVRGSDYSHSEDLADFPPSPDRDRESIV
Protocol: To investigate whether atomoxetine also interacts with the open channel, we first tested for a possible use-dependency. All these experiments were carried out at a holding potential of −140 mV and a test pulse to −20 mV with its duration set to 1 ms. This short activation time was chosen to minimize the time the channels spent in the inactivated state. After establishing stable baseline values using infrequent activations every 5 s (0.2 Hz) a train of high frequency stimulation (1, 3 10 Hz) was started. For evaluation, the peak current amplitude of each pulse was divided by the amplitude of the first response of the high frequency stimulation train. […] For quantification, the remaining current amplitudes of the 50th pulse were related to the first pulse. […] In order to analyse further if atomoxetine prefers an interaction with the open or fast inactivated state, we increased the test pulse duration up to a factor of 20.
FIGURE 9 Analysis for use-dependence at a pulsing frequency of 10 Hz (A) After establishing stable control responses (activations every 5 s), atomoxetine was preincubated for 20 s before test pulses (1 ms) were applied at a frequency of 10 Hz. […] The amplitudes which were obtained from the high frequency stimulation are related to the first pulse of each train.

[2] = biological target: T1, hNav1.5; test: Tonic block of hNav1.5 channels (resting state, holding potential −140 mV), whole-cell patch clamp in tsA201 cells; conditions: N = 5
Protocol: The tsA201 cell line is a derivative of the human embryonic kidney cell line HEK-293 (ATCC#CRL1537, Merck KGaA, Darmstadt, Germany). tsA201 cells were cultured at 37°C in a humidified atmosphere at 95% air and 5% CO2 in MEM (minimum essential medium, Gibco, Eggenstein, Germany) supplemented with 50 U/ml penicillin, 50 μg/ml streptomycin (Gibco), 2 mM L-glutamine (Boehringer, Mannheim, Germany), and 10% fetal calf serum (Gibco). The cells were grown on polyornithine-coated culture dishes to 40% confluency and transfected using the TransFectin LipidReagent kit (Bio-Rad, München, Germany).
Briefly, tsA201 cells were used for experiments 24–48 h after transfection. Membrane currents were recorded in the whole-cell recording mode using an EPC-9 amplifier and Patchmaster software (v2x73; HEKA, Lambrecht, Germany ([Hamill et al., 1981])). Before recording, cells were rinsed twice with an extracellular standard solution containing (in mM): 140 NaCl, 5 KCl, 1.5 CaCl2, 10 glucose and 12 HEPES; adjusted to a final pH of 7.3. Patch pipettes were drawn from borosilicate glass with tip resistances of about 2 MΩ when filled with (in mM): 125 CsF, 10 NaF, 1 MgCl2, 10 EGTA, 10 HEPES; adjusted to a final pH of 7.2. To improve sealing, tips were briefly dipped into 2% dimethylsilane dissolved in dichloromethane. Unless otherwise stated, cells were held at a holding potential of −140 mV from which channel activation was elicited by brief depolarizing pulses to −20 mV of 5 ms duration. To minimize voltage errors, the series resistance was compensated up to 80%. Cells with currents larger than 6 nA were excluded from evaluation.
The medium in the dish (1.5 ml) was continuously exchanged using a "global" bath perfusion with the inflow set to 4.5 ml/min and the outflow removing any excess fluid. Reagents were applied locally to the cells by the L/M-SPS-8 superfusion system (List, Darmstadt, Germany). Switching between the 8 channels of the superfusion system was controlled by magnetic valves. The local inlet (tip of an eight-barrelled pipette) was positioned at a distance of 50–100 μm upstream and the local outlet at about 300 μm downstream of the patch pipette. A constant flow rate of control and test solutions (1 ml/min) was achieved by means of a pressure control system (MPCU-3, Lorenz, Göttingen, Germany). The time of solution exchange was estimated from the changes in the liquid junction potential to be about 1 ms. If not otherwise stated, drugs were preapplied for 20 s before starting the experiments.
Concentration-inhibition curves for the estimation of Kr (IC50 at −140 mV; Figure 2) or Kapp (Figure 6) were fitted to the Hill equation ID/IC= 1/1+([D]/IC50)^n (1) ID and IC are the current amplitudes in the presence and absence of the drug (D). [D] is the concentration of the drug. […]

[3] = biological target: T1, hNav1.5; test: Block development, interaction with the inactivated state: kinetic parameters (double-pulse protocol); conditions: for remaining current at the longest inactivation time: prepulse −20 mV up to 32 s
Source text: The time constant (τ) of block development for the different concentrations of atomoxetine was estimated by single exponential fits of the form: I/Imax = S+ a1*e^(−t/τ1) (7) t denotes the time, a is the fraction of channels which is blocked, and S represents the residual current.
Association (kon in µM^−1s^−1) and dissociation rates (koff in s^−1) were estimated from the slope and the y-intercept of a linear regression where the inverse of the fast time constants (1/τ) was plotted vs. the drug concentration [D] […] 1/τ= koff+kon*[D] (8) The affinity for the inactivated state (Ki) was calculated according to: Ki= koff/kon (9)
Instead of this, we employed another double-pulse protocol in order to determine the time dependence of the interaction of atomoxetine with the inactivated state. The experimental scheme consisted of a conditioning prepulse to −20 mV for a variable duration (range: 0.002–32 s), a short recovery for 100 ms at −140 mV, followed by the test pulse to −20 mV (inset to Figure 5A). […] For estimation of rate constants the inverse of the time constants (1/τ) were plotted vs. the concentration of atomoxetine (Figure 5C).
The pulse protocol (inset) was applied in intervals of 20 s. The peak currents of the test pulse were normalized to the peak amplitude of the prepulse and plotted vs. its duration. Solid lines represent fits of single exponential functions to data obtained for control (open squares) or different concentrations of atomoxetine (B) Data normalized with respect to control (C) The inverse of the time constants of individual cells were plotted vs. the concentration of atomoxetine. […] N = 5.

[4] = biological target: T1, hNav1.5; test: Slow inactivation (10 s conditioning prepulse); conditions: slow inactivation fit (Eq. 5); for V50_1: N = 5
Protocol: Voltage dependence of activation was calculated in two steps: First, changes in driving force owing to the different test potentials were considered by calculating the conductance g according to g = I/V−ENa (2) Thereafter, normalized data were fitted with a Boltzmann equation of the form: g/gmax= 1/1+e^(V50 − V/k) (3) Voltage dependence of fast inactivation were fit using a Boltzmann equation of the form: I/Imax= 1/1+ e^(V − V50/k) (4) In case of slow inactivation Eq. 4 was extended by a second term and the additional parameter (S) which considers the steady-state level of the incomplete inactivation. I/Imax=(1−S)(a1/1+ e^(V− V501/k1)+ a2/1+ e^(V− V502/k2))+ S (5) Abbreviations used for voltage-dependent parameters: V and V50i are the actual membrane potentials and the potentials at which half maximal current (I)/conductance (g) occur, respectively. ENa indicates the reversal potential which was experimentally determined for each cell. The slope factors are given by ki and the relative amount of the individual terms are represented by ai. Constraint throughout: ∑i=1nai=1 .
In a next set of experiments, we directly investigated for a possible interaction with the slow inactivated state. To this end, similar experiments as shown in Figure 4 were conducted with the following deviations: the duration of the conditioning prepulse was set to 10 s, and a recovery period (100 ms) at −160 mV was inserted immediately before the test pulse to eliminate or minimize the contribution from fast-inactivation. […] Another hallmark for an interaction with the slow inactivated state is an ongoing increase in inhibition in the potential range (V50_2) where slow inactivation is expected to occur. In order to evaluate this we renormalized the data in the presence of atomoxetine with their respective control (Figure 7B).
FIGURE 7 Interaction with the slow-inactivated state (A) Infrequent (interval: 30 s) channel activations by step depolarisations to −20 mV were elicited after long lasting (10 s) conditioning prepulses to different potentials (inset). A short (100 ms) recovery period at −160 mV was inserted immediately before the test pulse. Data of normalized peak currents are plotted vs. the prepulse potential. Solid lines are fits according to Eq. 5 for control (open squares) and atomoxetine (3 µM) (filled symbols). […] (B) Plot of renormalized data was obtained by dividing the drug values by control values.

[5] = biological target: T1, hNav1.5; test: Recovery from inactivation (double pulse protocols); assay type: cell-based; design: expressed in transfected cells; host or cells: tsA201 (HEK-293 derivative)
Source text: Current amplitudes were normalized to the maximum peak amplitude of INa in the absence and presence of atomoxetine. Recovery time constants were estimated from double or triple exponential fits according to: I/Imax = 1− a1*e^(−t/τ1) −a2*e^(−t/τ2)− a3*e^(−t/τ3) (10)
Recovery from inactivation was estimated with double pulse protocols using two different durations for the inactivating pulse: 500 ms and 10 s. The test pulse was applied after a variable time spent at the recovery potential of −140 mV (inset Figure 8). Using the short inactivation time of 500 ms, recovery occurred with two time constants. In the absence of atomoxetine about 90% of the channels recovered with a fast time constant (τ 1 = 2.2 ± 0.2 ms), representing recovering from fast inactivation. The remainder recovered with a slower time constant (τ 2 = 37.7 ± 15.6 ms), probably representing recovery from slow inactivation. In the presence of atomoxetine the time constant of the fast component was hardly extended whereas those of the slow time constant was prolongated with little or no change in the relative amount of the two components (Figure 8A, Table 2). […] Using an inactivation time of 10 s, recovery has to be fitted with triple exponential functions, separating the recovery process in a fast, intermediate and a slow component (Figure 8B). In the presence of atomoxetine a profound increase in all time constants resulted. Moreover, the component of the fast time constant decreased and that of the slow component increased in a concentration dependent manner while the amount of the intermediate component stayed almost constant (Table 3).
FIGURE 8 Recovery from inactivation (A) The relative amount of available channels after increasing duration of recovery at −140 mV is illustrated. Inactivation was performed at −20 mV for 500 ms. The pulse protocol is illustrated by the inset. Interval between individual measurements was 10 s and atomoxetine was applied at 3 and 10 µM. Solid lines represent fits with two exponential functions according to Eq. 10. (B) Otherwise identical protocol as in (A) but with the inactivation time set to 10 s. For data fitting, three exponentials were required. For fit parameters see Table 2, N = 5.

[6] = biological target: T1, hNav1.5; test: Voltage dependence of fast inactivation (500 ms prepulse); assay type: cell-based; design: expressed in transfected cells; host or cells: tsA201 (HEK-293 derivative); conditions: for net drug-induced shift of half maximal fast inactivation (signed): N = 5
Protocol: Constraint throughout: ∑i=1nai=1 .
For establishing inactivation curves, the membrane potential was stepped to different prepulse potentials (from −140 to −45 mV; increment 5 mV) for 500 ms before channel activations were carried out by depolarizations to −20 mV. For estimation of inactivation parameters, the normalized peak currents were plotted vs. the prepulse potentials. Inactivation curves, characterized by inactivation midpoints and the curve slope were obtained by data fitting using Eq. 4. […] After a second control, atomoxetine was applied at a concentration of 3 and 10 µM (Figure 4A) For final evaluation of drug effects, first the endogenous shift was estimated for each cell individually by the difference between the two controls. […] We used a cell-specific endogenous shift instead of a global shift, as the endogenous shift is highly variable between individual cells.
FIGURE 4 Voltage dependence of fast inactivation (A) Data of a representative measurement series of normalized peak currents in the absence and presence of atomoxetine are shown. Solid lines represent fits according to Eq. 4.

[7] = biological target: T1, hNav1.5; test: Interaction with the inactivated state: steady-state concentration-response relationship
Protocol: Concentration-inhibition curves for the estimation of Kr (IC50 at −140 mV; Figure 2) or Kapp (Figure 6) were fitted to the Hill equation ID/IC= 1/1+([D]/IC50)^n (1) ID and IC are the current amplitudes in the presence and absence of the drug (D). [D] is the concentration of the drug. IC50 represents the concentration of the blocker that causes 50% inhibition and n is the Hill coefficient.
The affinity to the inactivated state (Ki) was calculated according to ([Bean et al., 1983]) as: 1/Kapp= h/Kr+ (1−h)/Ki (6) Kapp is the apparent affinity estimated at a selected membrane potential at which the amount of non-inactivated channels is given by h (estimated from the corresponding inactivation curve).
Activations were repeated several times at each concentration to achieve steady-state condition (Figure 6A). The holding potential was chosen individually for each cell to be around half maximal inactivation according to a preceding estimation of availability. Before the test pulse a short recovery (100 ms at −160 mV) was carried out (inset to Figure 6A). From the concentration relationship apparent half maximal effective concentrations (Kapp) were calculated using Eq. 1 (Figure 6B). The affinity for the inactivated channel was then calculated according to Eq. 6 which considers the varying amount of inactivated channels in individual experiments.
Activations were carried out every 30 s using a holding potential at which the channels were partly inactivated (relative amount of available channels in this experiment: h = 0.81). Immediately before the activations a short recovery (100 m s) at −160 mV was intercalated (inset). Activations were repeated at each condition until a near stable current amplitude was achieved. (B) The apparent IC50 (IC50app) was calculated from the concentration-dependent decline of the current amplitudes. The affinity to the inactivated state was calculated considering the current amount of available channels according to Eq. 6.

[8] = biological target: T1, hNav1.5; test: Voltage dependence of activation, whole-cell patch clamp; assay type: cell-based; design: expressed in transfected cells; host or cells: tsA201 (HEK-293 derivative)
[9] = test system: WCW-mutant; design: method as in Poulin et al., 2014; conditions: ref Poulin et al., 2014; cited from earlier work
[10] = test system: F1760C; design: method as in Poulin et al., 2014; conditions: anaesthetic binding site; ref Poulin et al., 2014; cited from earlier work
[11] = biological target: T1, hNav1.5; design: expressed in transfected cells; host or cells: tsA201 (HEK-293 derivative); method as in Poulin et al., 2014; conditions: ref Poulin et al., 2014; cited from earlier work

With `CNCC[C@@H](Oc1ccccc1C)c1ccccc1` [atomoxetine] the “relative current amplitude of the 50th pulse related to the first pulse” value (shortened to “relative current amplitude”) ([1]; 1 Hz, 1 µM atomoxetine) was 0.96 ± 0.01, the “relative current amplitude” value ([1]; 1 Hz, 3 µM atomoxetine) was 0.89 ± 0.05 and the “relative current amplitude” value ([1]; 1 Hz, 10 µM atomoxetine) was 0.69 ± 0.09. For the same compound, the “relative current amplitude” value ([1]; 3 Hz, 1 µM atomoxetine) was 0.95 ± 0.02, the “relative current amplitude” value ([1]; 3 Hz, 3 µM atomoxetine) was 0.85 ± 0.07 and the “relative current amplitude” value ([1]; 3 Hz, 10 µM atomoxetine) was 0.61 ± 0.09. The “relative current amplitude” value ([1]; 10 Hz, 3 µM atomoxetine) was 0.79 ± 0.03, the “relative current amplitude” value ([1]; 10 Hz, 10 µM atomoxetine) was 0.48 ± 0.07 and the “remaining current amplitude (use-dependence, pulse duration series)” value (“remaining current amplitude” below) ([1]; activation time 1 ms, 10 µM atomoxetine) was 0.54 ± 0.03. The “remaining current amplitude” value ([1]; activation time 5 ms, 10 µM atomoxetine) was 0.43 ± 0.03, the “remaining current amplitude” value ([1]; activation time 20 ms, 10 µM atomoxetine) was 0.37 ± 0.09 and the IC50 ([2]; half maximal effective concentration (Kr, IC50 at −140 mV; affinity for the resting state), drug preapplied 30 s) was ~120000 nM and 120000 nM and 119000 nM. The Hill coefficient ([2]; tonic block) was 1.47 ± 0.06, the Ki [3] was 2570 nM and the “remaining current at the longest inactivation time” value ([3]; 3 µM atomoxetine, control 70.0 ± 14.0%) was 32.6 ± 9.8%. The “remaining current at the longest inactivation time” value ([3]; 10 µM atomoxetine) was 11.5 ± 8.0%, the “time constant of block development” value ([3]; 10 µM atomoxetine, single exponential fit, normalized to control) was 4.3 ± 0.1 s and the kon ([3]; read-out: rate constant for association (kon)) was 18500 M⁻¹ s⁻¹. It also gave a koff ([3]; read-out: rate constant for dissociation (koff)) of 0.047 s⁻¹, a V50_2 ([4]; 3 µM) of −65.5 ± 2.8 mV and an a1 ([4]; 3 µM) of 37.5 ± 18.7%. The k1 ([4]; 3 µM) was 5.2 ± 0.4 mV, the k2 ([4]; 3 µM) was 31.8 ± 1.9 mV and the V50_1 ([4]; 3 µM) was −101.3 ± 0.3 mV. For the same compound, the V50_2 ([4]; 10 µM) was −102.7 ± 3.9 mV, the a1 ([4]; 10 µM) was 71.1 ± 19.7% and the k1 ([4]; 10 µM) was 5.9 ± 0.2 mV. For the same compound, the k2 ([4]; 10 µM) was 34.2 ± 4.7 mV, the V50_1 ([4]; 10 µM) was −107.7 ± 0.2 mV and the “τ 1 (%) relative amount of component” value ([5]; 3 µM, inactivation 10 s) was 39.7 ± 2.2%. The “τ 1 (recovery time constant)” value ([5]; 3 µM, inactivation 10 s) was 5.8 ± 0.7 ms, the “τ 2 (%) relative amount of component” value ([5]; 3 µM, inactivation 10 s) was 22.7 ± 1.0% and the “τ 2 (recovery time constant)” value ([5]; 3 µM, inactivation 10 s) was 139 ± 37.2 ms. The “τ 3 (recovery time constant)” value ([5]; 3 µM, inactivation 10 s) was 3,524 ± 377 ms, the “τ 1 (%) relative amount of component” value ([5]; 3 µM, inactivation 500 ms) was 90.3 ± 2.0% and the “τ 2 (recovery time constant)” value ([5]; 3 µM, inactivation 500 ms) was 191.7 ± 74.2 ms. For the same compound, the “τ 1 (recovery time constant)” value ([5]; 3 µM, inactivation 500 ms, recovery at −140 mV) was 3.1 ± 0.2 ms, the “τ 1 (%) relative amount of component” value ([5]; 10 µM, inactivation 10 s) was 15.0 ± 1.6% and the “τ 1 (recovery time constant)” value ([5]; 10 µM, inactivation 10 s) was 12.4 ± 0.3 ms. For the same compound, the “τ 2 (%) relative amount of component” value ([5]; 10 µM, inactivation 10 s) was 17.2 ± 2.9%, the “τ 2 (recovery time constant)” value ([5]; 10 µM, inactivation 10 s) was 417 ± 152 ms and the “τ 3 (recovery time constant)” value ([5]; 10 µM, inactivation 10 s) was 4,859 ± 332 ms. For the same compound, the “τ 1 (%) relative amount of component” value ([5]; 10 µM, inactivation 500 ms) was 86.2 ± 1.8%, the “τ 1 (recovery time constant)” value ([5]; 10 µM, inactivation 500 ms) was 4.7 ± 0.3 ms and the “τ 2 (recovery time constant)” value ([5]; 10 µM, inactivation 500 ms) was 1,259 ± 351 ms. The “net shift in positive direction of fast inactivation midpoint” value ([6]; 3 µM atomoxetine, 500 ms prepulse, corrected for endogenous shift) was 0.3 mV, the “net drug-induced shift of half maximal fast inactivation (signed)” value ([6]; 3 µM atomoxetine) was “+0.3 mV” and the “negative shift of fast inactivation midpoint (net)” value ([6]; 10 µM atomoxetine, 500 ms prepulse, corrected for endogenous shift) was 0.9 mV. For the same compound, the “net drug-induced shift of half maximal fast inactivation (signed)” value ([6]; 10 µM atomoxetine) was −0.9 mV, the IC50 ([7]; Half-maximal effective concentrations (interaction with inactivated state), different experimental settings, abstract) was 2000 to 3000 nM and the Ki ([7]; Ki (inactivated state), single experiment of Figure 6B, Eq. 6) was 1850 nM. For the same compound, the Ki ([7]; affinity for the inactivated state (Ki), calculated from Kapp by Eq. 6, holding potential around half maximal inactivation, N = 5) was 1590 ± 450 nM, the IC50 ([7]; apparent IC50 (IC50app), single experiment of Figure 6B, partly inactivated channels) was 2270 nM and the “higher affinity for the inactivated state compared to the resting state” value ([7]; depending on the applied protocol) was “about 50 fold”. The “slope of the activation curve” value ([8]; 3 µM atomoxetine) was 6.6 ± 0.6 mV, the “midpoint of the activation curve (half maximal activation)” value ([8]; 3 µM atomoxetine, control −52.6 ± 3.5 mV) was −54.5 ± 3.9 mV and the “midpoint of the activation curve” value ([8]; 10 µM atomoxetine) was −55.5 ± 4.1 mV. For the same compound, the “slope of the activation curve” value ([8]; 10 µM atomoxetine) was 6.9 ± 0.6 mV.
In the case of `CNCCC(Oc1ccc(C(F)(F)F)cc1)c1ccccc1` (stereo not shown) [fluoxetine], the “ratio for the interaction with the resting state (peak current) vs. open channel (late current)” value [9] is given as 3 fold, the “ratio in affinity between F1760C and wildtype” value [10] is given as “about 2 fold” and the “ratio of affinity at holding potential −140 mV (resting state) versus −90 mV” value [11] is given as “less than 10 fold”.
